Values after ≈ are worked out from the molar mass of the structure shown. A value given as a limit tells only on which side of the number the result lay.

For experiment [1], the system named is Trichophyton mentagrophytes SM-110. Description: Antifungal activity evaluation test: minimum inhibitory concentration (MIC), broth dilution by reference to CLSI M38-A2. The experiment is classed as cell-based. The following applies: SM110, read-out: MIC (T. menta.). The procedure, abridged:
(§1)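 Broth microdilution after CLSI M38-A2: 2-fold DMSO dilution series in MOPS-buffered RPMI 1640 pH 7.0, inoculum 2×10^3 cells/mL final. Incubated 35° C for 4 days; MIC (μg/mL) is lowest concentration giving visually ≥80% growth inhibition versus growth control.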
A general note: Dilution methods test growth across graded concentrations, often in twofold steps.

The subject of experiment [2] is Trichophyton rubrum KD-1130. Described as above. The experiment is classed as cell-based. The note with it: KD1130, read-out: MIC (T. rubrum). The method in brief:
as §1

By MIC is commonly meant the least concentration at which growth counts as inhibited. As for `CCc1cc(Oc2ncccc2-c2cnccc2OC)ccc1C(F)F` [I-296, 2-[4-(difluoromethyl)-3-ethylphenoxy]-4′-methoxy-3,3′-bipyridine], the MIC in experiment [1] and in experiment [2] was no more than 0.1 µg/mL each time.

With `COc1ccccc1-c1cncnc1Oc1ccc(C(F)(F)F)nc1` [I-310, 5-(2-methoxyphenyl)-4-{[6-(trifluoromethyl)pyridin-3-yl]oxy}pyrimidine], the minimal inhibitory concentration (MIC) in experiment [1] and in experiment [2] was no more than 0.1 µg/mL in each case.

For `COc1ncccc1-c1cccnc1Oc1ccc(C(C)C)cc1` [I-447], the MIC in experiment [1] and in experiment [2] was no more than 0.1 µg/mL throughout.

In the case of `Cc1cncc(-c2cccnc2Oc2ccc(C(C)(F)F)nc2)c1` [I-93, 2-{[6-(1,1-difluoroethyl)pyridin-3-yl]oxy}-5′-methyl-3,3′-bipyridine], the MIC in experiment [1] and in experiment [2] was 0.2 to 0.78 µg/mL (≈ 0.611 to 2.38 µM) each time.

As for `COc1ccc(Cl)cc1-c1cccnc1Oc1ccc(C(F)(F)F)nc1` [I-23, 3-(5-chloro-2-methoxyphenyl)-2-{[6-(trifluoromethyl)pyridin-3-yl]oxy}pyridine], the MIC in experiment [1] and in experiment [2] was no more than 0.1 µg/mL in each case.

In the case of `CC(F)(F)c1ccc(Oc2ncccc2-c2ccccc2C(F)F)cn1` [I-86, 2-{[6-(1,1-difluoroethyl)pyridin-3-yl]oxy}-3-[2-(difluoromethyl)phenyl]pyridine], the MIC in experiment [1] and in experiment [2] was 0.2 to 0.78 µg/mL (≈ 0.552 to 2.15 µM) in each case.

`Cc1cc(Oc2ncccc2-c2cccc3ccnn23)cnc1C(F)(F)F` [I-461]: the MIC in experiment [1] and in experiment [2] was no more than 0.1 µg/mL throughout.

Consider `Cc1ccncc1-c1cccnc1Oc1ccc(-c2ccncc2)cc1` [I-430], for which the MIC in experiment [1] and in experiment [2] was no more than 0.1 µg/mL in each case.

Turning to `Cc1nsc(-c2cccnc2Oc2ccc(C(F)(F)F)nc2)c1Br` [I-377, 4-bromo-3-methyl-5-(2-{[6-(trifluoromethyl)pyridin-3-yl]oxy}pyridin-3-yl)isothiazole], the MIC in experiment [1] and in experiment [2] was no more than 0.1 µg/mL throughout.

As for `COc1cc(F)ccc1-c1cccnc1Oc1ccc(C(F)(F)Cn2ccnc2)nc1` [I-158, 2-{(6-[1,1-difluoro-2-(1H-imidazol-1-yl)ethyl]pyridin-3-yl)oxy}-3-(4-fluoro-2-methoxyphenyl)pyridine], the MIC is no more than 0.1 µg/mL in experiment [1] and 0.2 to 0.78 µg/mL (≈ 0.469 to 1.83 µM) in experiment [2].

Consider `COc1ccncc1-c1cccnc1Oc1ccc(Br)cc1` [I-234, 2-(4-bromophenoxy)-4′-methoxy-3,3′-bipyridine], for which the MIC in experiment [1] and in experiment [2] was no more than 0.1 µg/mL in each case.

Turning to `c1cnc(Oc2cnc3c(c2)CCCC3)c(-c2cccc3c2OCC3)c1` [I-137, 3-{[3-(2,3-dihydrobenzyofuran-7-yl)pyridin-2-yl]oxy}-5,6,7,8-tetrahydroquinoline], the MIC in experiment [1] and in experiment [2] was no more than 0.1 µg/mL each time.

For the compound `COc1cc(F)ccc1-c1cccnc1Oc1cnc(N(C)CC#N)nc1` [I-189], the MIC in experiment [1] and in experiment [2] was 0.2 to 0.78 µg/mL (≈ 0.547 to 2.13 µM) each time.

On to `COc1ccncc1-c1cccnc1Oc1ccc(Cl)cc1` [I-235, 2-(4-chlorophenoxy)-4′-methoxy-3,3′-bipyridine], for which the MIC in experiment [1] and in experiment [2] was 0.2 to 0.78 µg/mL (≈ 0.639 to 2.49 µM) throughout.

As for `COc1cc(F)ccc1-c1cccnc1Oc1ccc(C(F)(F)CO)nc1` [I-154, 2,2-difluoro-2-(5-{[3-(4-fluoro-2-methoxyphenyl)pyridin-2-yl]oxy}pyridin-2-yl)-ethanol], the MIC in experiment [1] and in experiment [2] was 0.2 to 0.78 µg/mL (≈ 0.531 to 2.07 µM) throughout.

Turning to `COc1ccccc1-c1cc(C)cnc1Oc1ccc(C(F)(F)F)nc1` [I-66, 3-(2-methoxyphenyl)-5-methyl-2-{[6-(trifluoromethyl)pyridin-3-yl]oxy}pyridine], the MIC in experiment [1] was 1.56 to 6.25 µg/mL (≈ 4.33 to 17.3 µM); in experiment [2] it was 0.2 to 0.78 µg/mL (≈ 0.555 to 2.16 µM).

As for `Cc1cnccc1-c1cccnc1Oc1ccc(C(F)(F)F)cc1` [I-205], the MIC in experiment [1] and in experiment [2] was no more than 0.1 µg/mL throughout.

For the compound `COc1ccccc1-c1cccnc1Oc1ccc(N(C)C)nc1` [I-365], the minimal inhibitory concentration (MIC) in experiment [1] is no more than 0.1 µg/mL; in experiment [2], 0.2 to 0.78 µg/mL (≈ 0.622 to 2.43 µM).

For `COc1ccnc(OC)c1-c1cccnc1Oc1ccc(C(F)(F)F)cc1` [I-203, 2,4-dimethoxy-2′-[4-(trifluoromethyl)phenoxy]-3,3′-bipyridine], the minimal inhibitory concentration (MIC) in experiment [1] and in experiment [2] was no more than 0.1 µg/mL throughout.

As to `FC(F)(F)c1ccc(Oc2ncccc2-c2cccc3cccnc23)cn1` [I-34, 8-(2-{[6-(trifluoromethyl)pyridin-3-yl]oxy}pyridin-3-yl)quinoline], the MIC in experiment [1] and in experiment [2] was no more than 0.1 µg/mL in each case.

`COc1ncncc1-c1cccnc1Oc1ccc(C(F)(F)F)cc1` [I-219, 4-methoxy-5-{2-[4-(trifluoromethyl)phenoxy]pyridin-3-yl}pyrimidine]: the MIC in experiment [1] and in experiment [2] was no more than 0.1 µg/mL each time.

Regarding `CCOc1ccccc1-c1cccnc1Oc1ccc(C(F)(F)F)nc1` [I-17, 3-(2-ethoxyphenyl)-2-{[6-(trifluoromethyl)pyridin-3-yl]oxy}pyridine], the minimal inhibitory concentration (MIC) in experiment [1] and in experiment [2] was 0.2 to 0.78 µg/mL (≈ 0.555 to 2.16 µM) throughout.

As to `COc1ccccc1-c1cccnc1Oc1ccc(C(F)(F)Cn2cc(C)cn2)nc1` [I-153, 2-{(6-[1,1-difluoro-2-(4-methyl-1H-pyrazol-1-yl)ethyl]pyridin-3-yl}oxy)-3-(2-methoxyphenyl)pyridine], the MIC in experiment [1] and in experiment [2] was no more than 0.1 µg/mL each time.

Regarding `COc1ccccc1-c1cccnc1Oc1ccc(C(F)(F)CN(C)C)nc1` [I-147, 2,2-difluoro-2-(5-{[3-(2-methoxyphenyl)pyridin-2-yl]oxy}-2-yl)-N,N-dimethylethanamine], the MIC in experiment [1] is no more than 0.1 µg/mL; in experiment [2], 0.2 to 0.78 µg/mL (≈ 0.519 to 2.02 µM).

Regarding `CSc1ccccc1-c1cccnc1Oc1ccc(C(F)(F)F)nc1` [I-14], the minimum inhibitory concentration (MIC) in experiment [1] and in experiment [2] was no more than 0.1 µg/mL in each case.

As to `CCc1ccc(Oc2ncccc2-c2cnccc2OC)cc1C` [I-263, 2-(4-ethyl-3-methylphenoxy)-4′-methoxy-3,3′-bipyridine], the minimal inhibitory concentration (MIC) in experiment [1] and in experiment [2] was no more than 0.1 µg/mL each time.

`COc1ccc(Oc2ncccc2-c2cnccc2OC)cc1` [I-242, 4′-methoxy-2-(4-methoxyphenoxy)-3,3′-bipyridine]: the MIC in experiment [1] is 0.2 to 0.78 µg/mL (≈ 0.649 to 2.53 µM); in experiment [2] it was 1.56 to 6.25 µg/mL (≈ 5.06 to 20.3 µM).

With `CCc1cc(Oc2ncccc2-c2cnccc2OC)ccc1C` [I-264, 2-(3-ethyl-4-methylphenoxy)-4′-methoxy-3,3′-bipyridine], the MIC in experiment [1] and in experiment [2] was no more than 0.1 µg/mL throughout.

For `COc1cc(F)ccc1-c1cccnc1Oc1ccc(C2CC2)nc1` [I-129, 2-[(6-cyclopropylpyridin-3-yl)oxy]-3-(4-fluoro-2-methoxyphenyl)pyridine], the MIC in experiment [1] and in experiment [2] was no more than 0.1 µg/mL throughout.

On to `COc1ccccc1-c1cccnc1Oc1ccc(C(F)(F)COS(=O)(=O)C(F)(F)F)nc1` [I-80, 2,2-difluoro-2-(5-{[3-(2-methoxyphenyl)pyridin-2-yl]oxy}pyridin-2-yl)ethyl trifluoromethanesulfonate], for which the MIC in experiment [1] and in experiment [2] was 0.2 to 0.78 µg/mL throughout.

`COc1ccccc1-c1nccnc1Oc1ccc(C(F)(F)F)nc1` [I-309, 2-(2-methoxyphenyl)-3-{[6-(trifluoromethyl)pyridin-3-yl]oxy}pyrazine]: the MIC in experiment [1] was 0.2 to 0.78 µg/mL (≈ 0.576 to 2.25 µM); in experiment [2], no more than 0.1 µg/mL.

As to `COc1cccc(-c2cccnc2Oc2ccc(C(C)(F)F)nc2)n1` [I-95, 2′-{[6-(1,1-difluoroethyl)pyridin-3-yl]oxy}-6-methoxy-2,3′-bipyridine], the minimum inhibitory concentration (MIC) in experiment [1] and in experiment [2] was 0.2 to 0.78 µg/mL (≈ 0.583 to 2.27 µM) each time.

Regarding `CCc1ccc(Oc2ncccc2-c2cnccc2OC)c(F)c1` [I-394, 2-(4-ethyl-2-fluorophenoxy)-4′-methoxy-3,3′-bipyridine], the MIC in experiment [1] and in experiment [2] was no more than 0.1 µg/mL throughout.

With `COc1cc(F)ccc1-c1cccnc1Oc1cnc(I)nc1` [I-191, 5-{[3-(4-fluoro-2-methoxyphenyl)pyridin-2-yl]oxy}-2-iodopyrimidine], the MIC in experiment [1] and in experiment [2] was 0.2 to 0.78 µg/mL (≈ 0.473 to 1.84 µM) in each case.

With `COc1ccncc1-c1cccnc1Oc1ccc(C(F)F)c(C)c1` [I-295, 2-[4-(difluoromethyl)-3-methylphenoxy]-4′-methoxy-3,3′-bipyridine], the MIC in experiment [1] and in experiment [2] was no more than 0.1 µg/mL each time.

As to `CC(F)(F)c1ccc(Oc2ncccc2-c2cncc3nccnc23)cn1` [I-111, 8-(2-{[6-(1,1-difluoroethyl)pyridin-3-yl]oxy}pyridin-3-yl)pyrido[3,4-b]pyrazine], the MIC in experiment [1] and in experiment [2] was 0.2 to 0.78 µg/mL (≈ 0.547 to 2.13 µM) in each case.

As to `CC(F)(F)c1ccc(Oc2ncccc2-c2cccc3nccnc23)cn1` [I-110, 5-(2-{[6-(1,1-difluoroethyl)pyridin-3-yl]oxy}pyridin-3-yl)quinoxaline], the minimum inhibitory concentration (MIC) in experiment [1] is no more than 0.1 µg/mL; in experiment [2], 0.2 to 0.78 µg/mL (≈ 0.549 to 2.14 µM).

In the case of `COCC(C)(C)c1ccc(Oc2ncccc2-c2cnccc2OC)cc1` [I-275, 4′-methoxy-2-[4-(1-methoxy-2-methylpropan-2-yl)phenoxy]-3,3′-bipyridine], the MIC in experiment [1] and in experiment [2] was 0.2 to 0.78 µg/mL (≈ 0.549 to 2.14 µM) in each case.

With `CCn1cc(CCc2ccc(Oc3ncccc3-c3cccnc3OC)cc2)cn1` [I-404, 2-{4-[2-(1-ethyl-1H-pyrazol-4-yl)ethyl]phenoxy}-2′-methoxy-3,3′-bipyridine], the MIC in experiment [1] and in experiment [2] was no more than 0.1 µg/mL each time.

`COCc1ccc(Oc2ncccc2-c2cnccc2OC)cc1` [I-251, 4′-methoxy-2-[4-(methoxymethyl)phenoxy]-3,3′-bipyridine]: the MIC in experiment [1] and in experiment [2] was 1.56 to 6.25 µg/mL (≈ 4.84 to 19.4 µM) in each case.

On to `Cc1nn2c(c1-c1cccnc1Oc1ccc(C(F)(F)F)cc1)OCCCC2` [I-233, 2-methyl-3-{2-[4-(trifluoromethyl)phenoxy]pyridin-3-yl}-5,6,7,8-tetrahydropyrazolo[1,5-b][1,3]oxazepine], for which the MIC in experiment [1] and in experiment [2] was 0.2 to 0.78 µg/mL (≈ 0.514 to 2 µM) each time.

(Values after patent publication US10647675B2 (priority 2015, dated 2020).)
